# Calls of active or inactive are those of the source. The rule behind the calls is not given here.
# Columns and labels:
# [1] = Inhibition of cysteine protease
# [2] = Inhibition of serine protease
# [3] = Inhibition of aspartic protease
smiles,measurement,setting,value
Cc1cccc2c1C(=O)N1C[C@H](OCc3ccccc3)C[C@H]1c1cnnn1-2,IC50,[1],Not Active
same,IC50,[2],536 µM
same,inhibition,[3],inactive
O=C1c2cc(Br)ccc2-n2nncc2[C@@H]2C[C@@H](OCc3ccccc3)CN12,IC50,[1],Not Active
same,IC50,[2],206 µM
same,inhibition,[3],inactive
O=C1c2cc(Br)ccc2-n2nncc2[C@@H]2CCCN12,IC50,[1],Not Active
same,IC50,[2],290 µM
same,inhibition,[3],inactive
Cc1cc(Br)cc2c1C(=O)N1CCC[C@H]1c1cnnn1-2,IC50,[1],Not Active
same,IC50,[2],674 µM
same,inhibition,[3],inactive
O=C1c2c(cccc2[N+](=O)[O-])-n2nncc2[C@@H]2CCCN12,IC50,[1],Not Active
same,IC50,[2],108 µM
same,inhibition,[3],inactive
O=C1c2cc(I)cc(I)c2-n2nncc2[C@@H]2C[C@@H](OCc3ccccc3)CN12,IC50,[1],Not Active
same,IC50,[2],196 µM
same,inhibition,[3],inactive
